Results reported in patent publication US20230181662A1, “USES OF ANTRODIA CINNAMOMEA EXTRACT IN MANUFACTURING PRODUCTS FOR REDUCING EXPRESSION AND TREATING ASSOCIATED DISEASES OF ANGIOTENSIN CONVERTING ENZYME 2” (priority 2020, published 2023).
“Also recorded” adds a separate entry of the source.

Molecular target: ACE-2 (Homo sapiens, UniProt Q9BYF1)
Assay: ACE-2 enzyme activity assay (MCA based peptide substrate, fluorescence)
Assay type: biochemical
Conditions: for inhibition ability on ACE-2 enzymatic activity: 20 μg/mL each ingredient

Chain of ACE-2 (Q9BYF1 18-805, species assumed): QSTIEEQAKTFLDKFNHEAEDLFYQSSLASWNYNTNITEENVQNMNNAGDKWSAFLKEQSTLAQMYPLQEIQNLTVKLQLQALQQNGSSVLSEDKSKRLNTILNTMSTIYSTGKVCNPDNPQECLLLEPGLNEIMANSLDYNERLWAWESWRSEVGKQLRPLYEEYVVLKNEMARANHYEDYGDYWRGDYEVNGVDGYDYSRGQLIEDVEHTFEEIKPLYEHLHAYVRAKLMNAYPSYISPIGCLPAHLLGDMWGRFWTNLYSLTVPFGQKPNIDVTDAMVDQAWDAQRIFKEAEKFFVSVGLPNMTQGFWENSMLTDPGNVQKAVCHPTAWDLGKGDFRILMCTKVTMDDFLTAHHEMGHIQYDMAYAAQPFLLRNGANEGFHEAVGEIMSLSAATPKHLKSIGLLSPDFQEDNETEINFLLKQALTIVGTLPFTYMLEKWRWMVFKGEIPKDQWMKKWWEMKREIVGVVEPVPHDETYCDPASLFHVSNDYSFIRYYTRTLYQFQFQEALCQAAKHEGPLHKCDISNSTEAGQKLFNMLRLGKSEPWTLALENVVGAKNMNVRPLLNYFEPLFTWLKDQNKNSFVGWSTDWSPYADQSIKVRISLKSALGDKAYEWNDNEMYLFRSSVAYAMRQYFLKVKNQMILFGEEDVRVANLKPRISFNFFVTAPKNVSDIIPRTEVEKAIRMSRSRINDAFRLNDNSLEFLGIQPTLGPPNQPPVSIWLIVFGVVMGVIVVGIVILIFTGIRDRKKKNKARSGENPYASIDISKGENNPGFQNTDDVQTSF

Antcin C
inhibition ability on ACE-2 enzymatic activity: had inhibition ability

C=C(CC[C@@H](C(=O)O)[C@H]1CC[C@@]2(C)C3=CC[C@H]4C(C)(C)[C@@H](O)CC[C@]4(C)C3=CC[C@]12C)C(C)C [DEA, dehydroeburicoic acid]
inhibition ability on ACE-2 enzymatic activity: had inhibition ability; also recorded: have ability of inhibition on ACE-2

Antcin K
inhibition ability on ACE-2 enzymatic activity: stronger inhibition activity; also recorded: have ability of inhibition on ACE-2

C=C(CCC(C)C1CCC2C3=C(C(=O)C(O)C21C)C1(C)CCC(O)C(C)C1CC3=O)C(C)C(=O)O (stereo not shown) [Antcin H]
inhibition ability on ACE-2 enzymatic activity: had inhibition ability

C=C(CC[C@@H](C(=O)O)[C@H]1C[C@H](O)[C@@]2(C)C3=CC[C@H]4C(C)(C)[C@@H](O)CC[C@]4(C)C3=CC[C@]12C)C(C)C [DSA, dehydrosulphurenic acid]
inhibition of ACE-2 enzyme activity (20 μg/mL each compound): more than 30%
inhibition ability on ACE-2 enzymatic activity: stronger inhibition activity; also recorded: have ability of inhibition on ACE-2

C=C(CC[C@@H](C)[C@H]1CC[C@H]2C3=C(C(=O)C[C@]12C)[C@@]1(C)CCC(=O)[C@@H](C)[C@@H]1CC3)C(C)C(=O)O (stereo partly shown) [Antcin A]
inhibition ability on ACE-2 enzymatic activity: stronger inhibition activity
